Assay results published in the NIST ThermoML archive (doi:10.1021/acs.jced.8b01135).

Experiment: xn = mol fraction of the nth substance listed
Conditions: 102 kPa, Liquid; for speed of sound: Frequency=3 MHz, Single path-length method; for mass density: Vibrating tube method; for viscosity: Concentric cylinders viscometry

CCCCCC1CCCCC1 [pentylcyclohexane] + CCCCCCCCCCCC
Conditions | mass density [kg/m3] | speed of sound [m/s] | viscosity [mPa·s]
288.15 K, x1 = 0.1009 | 757.14 | 1321.1 | –
288.15 K, x1 = 0.2001 | 761.98 | 1324.9 | –
288.15 K, x1 = 0.3003 | 767.03 | 1329.1 | –
288.15 K, x1 = 0.4009 | 772.26 | 1333.4 | –
288.15 K, x1 = 0.5001 | 777.64 | 1338.1 | –
288.15 K, x1 = 0.6 | 783.17 | 1343 | –
288.15 K, x1 = 0.7003 | 789 | 1348.1 | –
288.15 K, x1 = 0.8136 | 795.88 | 1354.4 | –
288.15 K, x1 = 0.9082 | 801.77 | 1359.9 | –
288.15 K, x1 = 1 | 807.78 | 1365.8 | –
293.15 K, x1 = 0.1009 | 753.52 | 1301.6 | 1.5
293.15 K, x1 = 0.2001 | 758.36 | 1305.5 | 1.51
293.15 K, x1 = 0.3003 | 763.41 | 1309.6 | 1.52
293.15 K, x1 = 0.4009 | 768.64 | 1313.9 | 1.54
293.15 K, x1 = 0.5001 | 774.02 | 1318.6 | 1.55
293.15 K, x1 = 0.6 | 779.55 | 1323.4 | 1.57
293.15 K, x1 = 0.7003 | 785.37 | 1328.5 | 1.6
293.15 K, x1 = 0.8136 | 792.25 | 1334.7 | 1.62
293.15 K, x1 = 0.9082 | 798.13 | 1340.2 | 1.66
293.15 K, x1 = 1 | 804.13 | 1346 | 1.69
298.15 K, x1 = 0.1009 | 749.9 | 1282.5 | –
298.15 K, x1 = 0.2001 | 754.73 | 1286.2 | –
298.15 K, x1 = 0.3003 | 759.79 | 1290.3 | –
298.15 K, x1 = 0.4009 | 765.01 | 1294.6 | –
298.15 K, x1 = 0.5001 | 770.39 | 1299.2 | –
298.15 K, x1 = 0.6 | 775.92 | 1304 | –
298.15 K, x1 = 0.7003 | 781.74 | 1309.1 | –
298.15 K, x1 = 0.8136 | 788.61 | 1315.2 | –
298.15 K, x1 = 0.9082 | 794.48 | 1320.6 | –
298.15 K, x1 = 1 | 800.48 | 1326.4 | –
303.15 K, x1 = 0.1009 | 746.27 | 1263.2 | 1.28
303.15 K, x1 = 0.2001 | 751.1 | 1267.1 | 1.29
303.15 K, x1 = 0.3003 | 756.16 | 1271.2 | 1.3
303.15 K, x1 = 0.4009 | 761.38 | 1275.4 | 1.31
303.15 K, x1 = 0.5001 | 766.76 | 1280 | 1.32
303.15 K, x1 = 0.6 | 772.28 | 1284.8 | 1.34
303.15 K, x1 = 0.7003 | 778.1 | 1289.8 | 1.35
303.15 K, x1 = 0.8136 | 784.97 | 1295.8 | 1.38
303.15 K, x1 = 0.9082 | 790.84 | 1301.1 | 1.4
303.15 K, x1 = 1 | 796.82 | 1306.7 | 1.43
313.15 K, x1 = 0.1009 | 738.99 | 1225.5 | 1.08
313.15 K, x1 = 0.2001 | 743.83 | 1229.3 | 1.09
313.15 K, x1 = 0.3003 | 748.88 | 1233.4 | 1.1
313.15 K, x1 = 0.4009 | 754.1 | 1237.6 | 1.11
313.15 K, x1 = 0.5001 | 759.47 | 1242.1 | 1.12
313.15 K, x1 = 0.6 | 764.99 | 1246.8 | 1.14
313.15 K, x1 = 0.7003 | 770.8 | 1251.7 | 1.15
313.15 K, x1 = 0.8136 | 777.66 | 1257.6 | 1.17
313.15 K, x1 = 0.9082 | 783.52 | 1262.8 | 1.19
313.15 K, x1 = 1 | 789.49 | 1268.2 | 1.21
323.15 K, x1 = 0.1009 | 731.68 | 1188.3 | 0.941
323.15 K, x1 = 0.2001 | 736.51 | 1192.1 | 0.949
323.15 K, x1 = 0.3003 | 741.57 | 1196.2 | 0.957
323.15 K, x1 = 0.4009 | 746.79 | 1200.3 | 0.967
323.15 K, x1 = 0.5001 | 752.16 | 1204.8 | 0.976
323.15 K, x1 = 0.6 | 757.67 | 1209.6 | 0.988
323.15 K, x1 = 0.7003 | 763.48 | 1214.3 | 1
323.15 K, x1 = 0.8136 | 770.33 | 1220.1 | 1.02
323.15 K, x1 = 0.9082 | 776.17 | 1225.1 | 1.03
323.15 K, x1 = 1 | 782.14 | 1230.5 | 1.05
333.15 K, x1 = 0.1009 | 724.33 | 1151.9 | 0.819
333.15 K, x1 = 0.2001 | 729.17 | 1155.8 | 0.825
333.15 K, x1 = 0.3003 | 734.22 | 1159.8 | 0.833
333.15 K, x1 = 0.4009 | 739.44 | 1163.9 | 0.841
333.15 K, x1 = 0.5001 | 744.8 | 1168.3 | 0.851
333.15 K, x1 = 0.6 | 750.31 | 1172.9 | 0.861
333.15 K, x1 = 0.7003 | 756.11 | 1177.6 | 0.871
333.15 K, x1 = 0.8136 | 762.96 | 1183.4 | 0.887
333.15 K, x1 = 0.9082 | 768.8 | 1188.4 | 0.897
333.15 K, x1 = 1 | 774.75 | 1193.5 | 0.914
